Reference: the NIST ThermoML archive (doi:10.1007/s10765-010-0766-0)
“And” between values parts separate entries of the source, which are not always exact repeats. Identical values can stand only once. Numbers after ± are expanded uncertainties.

Assay: molar heat capacity at constant volume
Conditions: Liquid, Vacuum adiabatic calorimetry

FC(F)C(F)(F)OCC(F)(F)F [2,2,2-trifluoroethyl 1,1,2,2-tetrafluoroethyl ether]
Conditions | molar heat capacity at constant volume
342.15 K, 16809 kPa | 207.06 ± 9.4 J/K/mol
342.15 K, 16812 kPa | 204.66 ± 9.2 J/K/mol
343.15 K, 17505 kPa | 207.06 ± 9.4 J/K/mol
343.15 K, 17508 kPa | 209.46 ± 9.4 J/K/mol
344.15 K, 18201 kPa | 208.46 ± 9.4 J/K/mol
344.15 K, 18203 kPa | 206.86 ± 9.4 J/K/mol
345.15 K, 18896 kPa | 207.66 ± 9.4 J/K/mol
345.15 K, 18898 kPa | 208.46 ± 9.4 J/K/mol
346.15 K, 19590 kPa | 208.86 ± 9.4 J/K/mol
346.15 K, 19592 kPa | 209.46 ± 9.4 J/K/mol
347.15 K, 20282 kPa | 208.46 ± 9.4 J/K/mol
347.15 K, 20287 kPa | 209.26 ± 9.4 J/K/mol
348.15 K, 20974 kPa | 209.86 ± 9.4 J/K/mol
348.15 K, 20978 kPa | 208.06 ± 9.4 J/K/mol
349.15 K, 21666 kPa | 210.06 ± 9.4 J/K/mol
349.15 K, 21671 kPa | 208.66 ± 9.4 J/K/mol
350.15 K, 22357 kPa | 208.66 ± 9.4 J/K/mol
350.15 K, 22360 kPa | 209.86 ± 9.4 J/K/mol
351.15 K, 23047 kPa | 209.86 ± 9.4 J/K/mol
351.15 K, 23050 kPa | 209.26 ± 9.4 J/K/mol
352.15 K, 23735 kPa | 210.86 ± 9.4 J/K/mol
352.15 K, 23739 kPa | 210.46 ± 9.4 J/K/mol
353.15 K, 24423 kPa | 210.26 ± 9.4 J/K/mol
353.15 K, 24426 kPa | 208.06 ± 9.4 J/K/mol
354.15 K, 25110 kPa | 210.86 ± 9.4 J/K/mol
354.15 K, 25114 kPa | 212.46 ± 9.6 J/K/mol
355.15 K, 25797 kPa | 211.06 ± 9.6 J/K/mol
355.15 K, 25801 kPa | 209.46 ± 9.4 J/K/mol
356.15 K, 26482 kPa | 211.86 ± 9.6 J/K/mol
356.15 K, 26486 kPa | 212.66 ± 9.6 J/K/mol
357.15 K, 27166 kPa | 211.26 ± 9.6 J/K/mol
357.15 K, 27171 kPa | 210.26 ± 9.4 J/K/mol
358.15 K, 27851 kPa | 212.26 ± 9.6 J/K/mol
358.15 K, 27855 kPa | 211.46 ± 9.6 J/K/mol
359.15 K, 5632 kPa | 208.86 ± 9.4 J/K/mol
359.15 K, 5637 kPa | 212.66 ± 9.6 J/K/mol
359.15 K, 28535 kPa | 212.86 ± 9.6 J/K/mol
359.15 K, 28538 kPa | 210.46 ± 9.4 J/K/mol
360.15 K, 6174 kPa | 219.66 ± 9.8 J/K/mol
360.15 K, 6180 kPa | 217.06 ± 9.8 J/K/mol
360.15 K, 29217 kPa | 214.06 ± 9.6 J/K/mol
360.15 K, 29220 kPa | 212.66 ± 9.6 J/K/mol
361.15 K, 6718 kPa | 218.26 ± 9.8 J/K/mol
361.15 K, 6724 kPa | 216.66 ± 9.8 J/K/mol
361.15 K, 29899 kPa | 213.46 ± 9.6 J/K/mol
361.15 K, 29902 kPa | 211.26 ± 9.6 J/K/mol
362.15 K, 7261 kPa | 215.86 ± 9.8 J/K/mol
362.15 K, 7266 kPa | 216.46 ± 9.8 J/K/mol
363.15 K, 7803 kPa | 218.26 ± 9.8 J/K/mol
363.15 K, 7809 kPa | 215.46 ± 9.6 J/K/mol
364.15 K, 8346 kPa | 219.06 ± 9.8 J/K/mol
364.15 K, 8350 kPa | 216.06 ± 9.8 J/K/mol
365.15 K, 8888 kPa | 216.66 ± 9.8 J/K/mol
365.15 K, 8892 kPa | 215.86 ± 9.8 J/K/mol
366.15 K, 9430 kPa | 217.86 ± 9.8 J/K/mol
366.15 K, 9434 kPa | 216.86 ± 9.8 J/K/mol
367.15 K, 9971 kPa | 217.46 ± 9.8 J/K/mol
367.15 K, 9976 kPa | 214.46 ± 9.6 J/K/mol
368.15 K, 10512 kPa | 219.06 ± 9.8 J/K/mol
368.15 K, 10516 kPa | 216.46 ± 9.8 J/K/mol
369.15 K, 11053 kPa | 221.26 ± 10 J/K/mol
369.15 K, 11057 kPa | 217.06 ± 9.8 J/K/mol
370.15 K, 11593 kPa | 218.86 ± 9.8 J/K/mol
370.15 K, 11598 kPa | 217.46 ± 9.8 J/K/mol
371.15 K, 12133 kPa | 218.66 ± 9.8 J/K/mol
371.15 K, 12137 kPa | 218.86 ± 9.8 J/K/mol
372.15 K, 12673 kPa | 218.86 ± 9.8 J/K/mol
372.15 K, 12677 kPa | 215.86 ± 9.8 J/K/mol
373.15 K, 13212 kPa | 219.66 ± 9.8 J/K/mol
373.15 K, 13216 kPa | 217.86 ± 9.8 J/K/mol
374.15 K, 13752 kPa | 219.46 ± 9.8 J/K/mol
374.15 K, 13756 kPa | 217.66 ± 9.8 J/K/mol
375.15 K, 14290 kPa | 217.86 ± 9.8 J/K/mol
375.15 K, 14294 kPa | 219.06 ± 9.8 J/K/mol
376.15 K, 14828 kPa | 220.86 ± 10 J/K/mol
376.15 K, 14831 kPa | 218.86 ± 9.8 J/K/mol
377.15 K, 15366 kPa | 220.06 ± 10 J/K/mol
377.15 K, 15369 kPa | 218.46 ± 9.8 J/K/mol
378.15 K, 15904 kPa | 218.46 ± 9.8 J/K/mol
378.15 K, 15906 kPa | 219.66 ± 9.8 J/K/mol
379.15 K, 16441 kPa | 218.86 ± 9.8 J/K/mol
379.15 K, 16443 kPa | 219.86 ± 9.8 J/K/mol
380.15 K, 16977 kPa | 219.26 ± 9.8 J/K/mol
380.15 K, 16980 kPa | 219.46 ± 9.8 J/K/mol
381.15 K, 17514 kPa | 219.26 ± 9.8 J/K/mol
381.15 K, 17515 kPa | 217.26 ± 9.8 J/K/mol
382.15 K, 18050 kPa | 219.86 ± 9.8 J/K/mol
382.15 K, 18051 kPa | 219.66 ± 9.8 J/K/mol
383.15 K, 18585 kPa | 221.26 ± 10 J/K/mol
383.15 K, 18586 kPa | 221.46 ± 10 J/K/mol
384.15 K, 19120 kPa | 220.66 ± 10 J/K/mol
384.15 K, 19121 kPa | 222.06 ± 10 J/K/mol
385.15 K, 19655 kPa | 218.86 ± 9.8 J/K/mol
385.15 K, 19656 kPa | 220.66 ± 10 J/K/mol
386.15 K, 20189 kPa | 221.06 ± 10 J/K/mol
387.15 K, 20723 kPa | 223.66 ± 10 J/K/mol and 224.66 ± 10 J/K/mol
388.15 K, 21256 kPa | 224.66 ± 10 J/K/mol and 224.06 ± 10 J/K/mol
389.15 K, 21789 kPa | 225.66 ± 10 J/K/mol and 224.86 ± 10 J/K/mol
390.15 K, 22322 kPa | 226.86 ± 10 J/K/mol and 224.86 ± 10 J/K/mol
391.15 K, 22854 kPa | 224.66 ± 10 J/K/mol
391.15 K, 22855 kPa | 228.46 ± 10 J/K/mol
392.15 K, 23385 kPa | 225.06 ± 10 J/K/mol
392.15 K, 23386 kPa | 227.06 ± 10 J/K/mol
393.15 K, 23917 kPa | 228.26 ± 10 J/K/mol and 226.46 ± 10 J/K/mol
394.15 K, 24448 kPa | 226.26 ± 10 J/K/mol and 223.66 ± 10 J/K/mol
395.15 K, 24978 kPa | 226.66 ± 10 J/K/mol and 225.06 ± 10 J/K/mol
396.15 K, 25507 kPa | 229.06 ± 10 J/K/mol
396.15 K, 25508 kPa | 226.86 ± 10 J/K/mol
397.15 K, 26037 kPa | 228.06 ± 10 J/K/mol
397.15 K, 26038 kPa | 226.06 ± 10 J/K/mol
398.15 K, 26566 kPa | 229.06 ± 10 J/K/mol
398.15 K, 26567 kPa | 227.06 ± 10 J/K/mol
399.15 K, 27094 kPa | 227.06 ± 10 J/K/mol
399.15 K, 27096 kPa | 227.86 ± 10 J/K/mol
400.15 K, 27622 kPa | 228.66 ± 10 J/K/mol
400.15 K, 27623 kPa | 228.46 ± 10 J/K/mol
401.15 K, 28150 kPa | 229.66 ± 10 J/K/mol
401.15 K, 28151 kPa | 227.66 ± 10 J/K/mol
402.15 K, 28677 kPa | 226.66 ± 10 J/K/mol
402.15 K, 28678 kPa | 227.26 ± 10 J/K/mol
403.15 K, 29204 kPa | 229.26 ± 10 J/K/mol
403.15 K, 29205 kPa | 227.86 ± 10 J/K/mol
404.15 K, 29730 kPa | 227.86 ± 10 J/K/mol
404.15 K, 29732 kPa | 229.86 ± 10 J/K/mol
